Reference: patent publication US7205382B2, “Peptides, the production and use thereof for binding immunoglobulins” (Fresenius Medical Care Affina GmbH, priority 2000, dated 2007)
Bridge positions count the residues as written; N and C are the ends. Square brackets hold non-standard residues; d marks the D form. Ends that are not written are not given here. cellulose = not defined here; βAla = NCCC(=O)O

What was measured:
Type in all cases: binding
Parameters in all cases: key: No binding of immunoglobulin for the defined peptide variant, detection negative: 0; Binding of immunoglobulin for the defined peptide variant, detection positive: +
serum albumin = assay: Cellulose-immobilized 13-mer peptide variants incubated with serum albumin (negative control), anti-human IgG-AP detection; settings: blocking buffer without addition, 3 h room temperature
Summary of the method: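 Read-out was colorimetric NBT/BCIP staining (developing buffer pH 9.5) after alkaline phosphatase-conjugated anti-human IgG at 1.2 μg/ml. Before this, the immobilized peptides had been incubated 3 h at room temperature with 1 μg/ml IgG-Fc, 1:10,000 diluted serum, or albumin-containing blocking buffer without addition.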

[1] = system: immunoglobulins in human plasma; assay: Cellulose-immobilized 13-mer peptide variants incubated with human plasma, anti-human IgG-AP detection; settings: human plasma as sample, diluted 1:10,000 in blocking buffer, 3 h room temperature
Summary of the method: (§1)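 Membrane-bound peptides, spaced by two β-alanines, are probed with 1 μg/ml IgG-Fc or 1:10,000 serum for 3 h at room temperature; blocking buffer alone acts as control. Detection uses anti-human IgG-AP (1.2 μg/ml) and NBT/BCIP.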

human IgG-Fc = assay: Cellulose-immobilized 13-mer peptide variants incubated with human IgG-Fc, anti-human IgG-AP detection; settings: IgG-Fc 1 μg/ml in blocking buffer, 3 h room temperature
Summary of the method: as §1

Row | Result for incubation with serum albumin (immunoglobulin binding detection) (serum albumin) | Result for incubation with human plasma (immunoglobulin binding detection) [1] | Result for incubation with human IgG-Fc (immunoglobulin binding detection) (human IgG-Fc) | Substance
1 | 0 | + | + | 09K: cellulose-bound 13-mer variant DCAWHLGEKVWCT-(βA)(βA) (DCAWHLGEKVWCT-{βAla-βAla-cellulose}; disulfide 2-12 (inferred); reading uncertain; also: printed as DCAWHLGEKVWCT-(βA)(βA))
2 | 0 | 0 | 0 | 04P: cellulose-bound 13-mer variant DCAPHLGELVWCT-(βA)(βA) (disulfide 2-12 (inferred); not fully specified (N-terminus, C-terminus); printed as DCAPHLGELVWCT-(βA)(βA); also: cellulose-bound)
3 | 0 | 0 | 0 | 08T: cellulose-bound 13-mer variant DCAWHLGTLVWCT-(βA)(βA) (DCAWHLGTLVWCT-{βAla-βAla-cellulose}; disulfide 2-12 (inferred); reading uncertain; also: printed as DCAWHLGTLVWCT-(βA)(βA))
4 | 0 | 0 | 0 | 07S: cellulose-bound 13-mer variant DCAWHLSELVWCT-(βA)(βA) (DCAWHLSELVWCT-{βAla-βAla-cellulose}; disulfide 2-12 (inferred); not fully specified (N-terminus); printed as DCAWHLSELVWCT-(βA)(βA); reading uncertain)
5 | 0 | 0 | 0 | 05E: cellulose-bound 13-mer variant DCAWELGELVWCT-(βA)(βA) (disulfide 2-12 (inferred); not fully specified (N-terminus, C-terminus); printed as DCAWELGELVWCT-(βA)(βA); also: cellulose-bound)
6 | 0 | 0 | + | 03Q: cellulose-bound 13-mer variant DCQWHLGELVWCT-(βA)(βA) (DCQWHLGELVWCT-{βAla-βAla-cellulose}; disulfide 2-12 (inferred); reading uncertain; also: printed as DCQWHLGELVWCT-(βA)(βA))
7 | 0 | 0 | + | 08S: cellulose-bound 13-mer variant DCAWHLGSLVWCT-(βA)(βA) (DCAWHLGSLVWCT-{βAla-βAla-cellulose}; disulfide 2-12 (inferred); reading uncertain; also: printed as DCAWHLGSLVWCT-(βA)(βA))
8 | 0 | 0 | 0 | 01V: cellulose-bound 13-mer variant VCAWHLGELVWCT-(βA)(βA) (VCAWHLGELVWCT-{βAla-βAla-cellulose}; disulfide 2-12 (inferred); reading uncertain; also: printed as VCAWHLGELVWCT-(βA)(βA))
9 | 0 | + | + | 08N: cellulose-bound 13-mer variant DCAWHLGNLVWCT-(βA)(βA) (DCAWHLGNLVWCT-{βAla-βAla-cellulose}; disulfide 2-12 (inferred); not fully specified (N-terminus); printed as DCAWHLGNLVWCT-(βA)(βA); reading uncertain)

More lines, now with the values behind:

Row | Substance | Result for incubation with serum albumin (immunoglobulin binding detection) (serum albumin) | Result for incubation with human plasma (immunoglobulin binding detection) [1] | Result for incubation with human IgG-Fc (immunoglobulin binding detection) (human IgG-Fc)
10 | 03I: cellulose-bound 13-mer variant DCIWHLGELVWCT-(βA)(βA) (DCIWHLGELVWCT-{βAla-βAla-cellulose}; disulfide 2-12 (inferred); reading uncertain; also: printed as DCIWHLGELVWCT-(βA)(βA)) | 0 | 0 | 0
11 | 07F: cellulose-bound 13-mer variant DCAWHLFELVWCT-(βA)(βA) (DCAWHLFELVWCT-{βAla-βAla-cellulose}; disulfide 2-12 (inferred); not fully specified (N-terminus); printed as DCAWHLFELVWCT-(βA)(βA); reading uncertain) | 0 | 0 | 0
12 | 03Y: cellulose-bound 13-mer variant DCYWHLGELVWCT-(βA)(βA) (DCYWHLGELVWCT-{βAla-βAla-cellulose}; disulfide 2-12 (inferred); reading uncertain; also: printed as DCYWHLGELVWCT-(βA)(βA)) | 0 | 0 | 0
13 | 08D: cellulose-bound 13-mer variant DCAWHLGDLVWCT-(βA)(βA) (DCAWHLGDLVWCT-{βAla-βAla-cellulose}; disulfide 2-12 (inferred); not fully specified (N-terminus); printed as DCAWHLGDLVWCT-(βA)(βA); reading uncertain) | 0 | + | +
14 | 04T: cellulose-bound 13-mer variant DCATHLGELVWCT-(βA)(βA) (disulfide 2-12 (inferred); not fully specified (N-terminus, C-terminus); printed as DCATHLGELVWCT-(βA)(βA); also: cellulose-bound) | 0 | + | +
15 | 10S: cellulose-bound 13-mer variant DCAWHLGELSWCT-(βA)(βA) (DCAWHLGELSWCT-{βAla-βAla-cellulose}; disulfide 2-12 (inferred); reading uncertain; also: printed as DCAWHLGELSWCT-(βA)(βA)) | 0 | 0 | 0
16 | 08L: cellulose-bound 13-mer variant DCAWHLGLLVWCT-(βA)(βA) (DCAWHLGLLVWCT-{βAla-βAla-cellulose}; disulfide 2-12 (inferred); not fully specified (N-terminus); printed as DCAWHLGLLVWCT-(βA)(βA); reading uncertain) | 0 | 0 | 0
17 | 06T: cellulose-bound 13-mer variant DCAWHTGELVWCT-(βA)(βA) (DCAWHTGELVWCT-{βAla-βAla-cellulose}; disulfide 2-12 (inferred); not fully specified (N-terminus); printed as DCAWHTGELVWCT-(βA)(βA); reading uncertain) | 0 | 0 | +
18 | 09R: cellulose-bound 13-mer variant DCAWHLGERVWCT-(βA)(βA) (DCAWHLGERVWCT-{βAla-βAla-cellulose}; disulfide 2-12 (inferred); reading uncertain; also: printed as DCAWHLGERVWCT-(βA)(βA)) | 0 | + | +
19 | 10F: cellulose-bound 13-mer variant DCAWHLGELFWCT-(βA)(βA) (DCAWHLGELFWCT-{βAla-βAla-cellulose}; disulfide 2-12 (inferred); reading uncertain; also: printed as DCAWHLGELFWCT-(βA)(βA)) | 0 | 0 | 0
20 | 01I: cellulose-bound 13-mer variant ICAWHLGELVWCT-(βA)(βA) (ICAWHLGELVWCT-{βAla-βAla-cellulose}; disulfide 2-12 (inferred); reading uncertain; also: printed as ICAWHLGELVWCT-(βA)(βA)) | 0 | 0 | 0
21 | 02T: cellulose-bound 13-mer variant DTAWHLGELVWCT-(βA)(βA) (DTAWHLGELVWCT[βAla][βAla]; not fully specified; printed as DTAWHLGELVWCT-(βA)(βA); also: cellulose-bound) | 0 | 0 | 0
